What was measured:
[1] = Sol-gel controls: O2 dependence of non-binding species, leaking, storage stability; assay type: physicochemical; details: individually encapsulated in a sol-gel matrix
Excerpt: [19]. The buffer solution surrounding the quartz slides was checked for leaking of the labeled protein out of the matrix. […] As already reported, the mechanical strength of silica gels often prevents the leaking of biomolecules. 3) Tryptophan fluorescence has been used to study stability and flexibility of proteins upon entrapment.

[2] = Control: emission of mixture of BSA-Atto390 and Hc-Cy5 during deoxygenation, excitation 280 nm; details: solution mixture
Excerpt: To rule out that the changes in dye fluorescence might be due to a specific quenching by molecular oxygen, a mixture of Atto390 labelled bovine serum albumin (BSA) and Hc-Cy5 was deoxygenated while recording emission spectra from 300 to 750 nm upon excitation at 280 nm. The applied labels emit at different wavelengths, therefore permitting the simultaneous observation of each individual conjugate. […] With the labels exchanged, the reverse was observed. From this it can be concluded that the variations in label fluorescence correlate with the binding of O2 to the labelled hemocyanin. […] Similar observations were made for Ty.

[3] = Switching ratio of Trp/label emission of tyrosinase (Ty) on deoxygenation, excitation 280 nm; parameters: species or system Streptomyces antibioticus; details: emission of Trp or of N-terminal dye label on Ty, excitation at 280 nm
Description: To illustrate this Example, Ty from the soil bacterium Streptomyces antibiotius was selected.
S.c. Ty contains 12 Trp residues on a total of 271 amino-acids (4.4% against ˜1% on average), which cluster around the type-3 centre. […] In an air-saturated solution (0.26 mM O2), practically all protein occurs in the oxygenated form (see FIG. 2A). Upon complete deoxygenation, the Trp fluorescence increases by a factor of 2.7 while the shape and position of the emission band remain unchanged. For the C.a. Hc samples, this factor, further referred to as the switching ratio SR (=Fred/Foxy), amounts to 2.2.
Both Hc and Ty were labelled at their N-terminus with each of the five dyes. […] The peak around […] is a second-order artefact. In a solution containing dye and protein separately (not linked) this peak (280 nm) was missing. The second order artefact is due to higher orders of light being allowed through the monochromator. The artefact can be excluded by placing a cut-off filter in the detection path that allows through light only beyond a certain wavelength (for example […]).
In all cases, an increase in label emission was observed after deoxygenating the sample (FIG. 4A). […] The Cy3 fluorescence is specific for the labelled protein, while the Trp emission derives mainly (>95%) from unlabelled Hc. […]

## bovine serum albumin labeled with Cy5: BSA labeled with Cy5 encapsulated in a sol-gel matrix, control
[1]
  dependence of fluorescence intensity on [O2]: neither unreacted Cy5 nor bovine serum albumin labeled with Cy5, both individually encapsulated in a sol-gel matrix, depended on the [O2]

## BSA-Atto390: Atto390 labelled bovine serum albumin, control
[2]
  dependence of label emission on [O2]: does not

B1: Ty: tyrosinase from the soil bacterium Streptomyces antibiotius (protein, UniProt P07524 2-273, looked up)
Tyrosinase: TVRKNQASLTAEEKRRFVAALLELKRTGRYDAFVTTHNAFILGDTDNGERTGHRSPSFLPWHRRFLLEFERALQSVDASVALPYWDWSADRSTRSSLWAPDFLGGTGRSRDGQVMDGPFAASAGNWPINVRVDGRTFLRRALGAGVSELPTRAEVDSVLAMATYDMAPWNSGSDGFRNHLEGWRGVNLHNRVHVWVGGQMATGVSPNDPVFWLHHAYIDKLWAEWQRRHPSSPYLPGGGTPNVVDLNETMKPWNDTTPAALLDHTRHYTFDV
[3]
  SR Tyr (switching ratio Fred/Foxy): 2.7

From patent publication US20100015635A1, “IMMOBILISATION OF FLUORESCENT PROTEINS” (priority 2006, published 2010)
